Reference: ChEMBL document CHEMBL1201862, “PubChem BioAssay data set” (2004)
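Test compounds were applied to cells in 96-well plates for 48 hours at 5 doses. Abbreviation: GI50, concentration required for 50% inhibition of growth.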 The source made the active and inactive calls. Rule as the data show it: active = GI50 up to about 1.1 µM and inactive = higher.

Experiments:
Test in all cases: NCI tumour cell line growth inhibition, 48 h
786-0 = system: 786-0
A498 = system: A498
A549 = system: A549
ACHN = system: ACHN
CAKI-1 = system: CAKI-1
CCRF-CEM = system: CCRF-CEM
COLO 205 = system: COLO 205
DU-145 = system: DU-145
EKVX = system: EKVX
HCC 2998 = system: HCC 2998
HCT-116 = system: HCT-116
HCT-15 = system: HCT-15
Hs-578T = system: Hs-578T
IGROV-1 = system: IGROV-1
K562 = system: K562
KM12 = system: KM12
LOX IMVI = system: LOX IMVI
M14 = system: M14
MDA-MB-435 = system: MDA-MB-435
MDA-N = system: MDA-N
MOLT-4 = system: MOLT-4
NCI-H23 = system: NCI-H23
NCI-H460 = system: NCI-H460
OVCAR-4 = system: OVCAR-4
PC-3 = system: PC-3
RPMI-8226 = system: RPMI-8226
RXF 393 = system: RXF 393
SF-268 = system: SF-268
SF-295 = system: SF-295
SK-MEL-28 = system: SK-MEL-28
SK-MEL-5 = system: SK-MEL-5
SN12C = system: SN12C
SNB-19 = system: SNB-19
SW-620 = system: SW-620
U-251 = system: U-251
UACC-257 = system: UACC-257
UACC-62 = system: UACC-62
UO-31 = system: UO-31
HL-60 = system: HL-60
HOP-62 = system: HOP-62
HOP-92 = system: HOP-92
HT-29 = system: HT-29
MCF7 = system: MCF7
MDA-MB-231 = system: MDA-MB-231
Malme-3M = system: Malme-3M
NCI-H226 = system: NCI-H226
NCI-H522 = system: NCI-H522
NCI/ADR-RES = system: NCI/ADR-RES
OVCAR-3 = system: OVCAR-3
OVCAR-5 = system: OVCAR-5
OVCAR-8 = system: OVCAR-8
SF-539 = system: SF-539
SK-MEL-2 = system: SK-MEL-2
SK-OV-3 = system: SK-OV-3
SNB-75 = system: SNB-75
SR = system: SR
TK-10 = system: TK-10

For `COc1ccc2c(ccc3c(C(=O)NCCCN(C)CCCNC(=O)c4cn(C)c5c4ccc4cc(OC)ccc45)cn(C)c32)c1`, which GI50 (786-0) is on record?
Its GI50 is 1.49 µM (inactive).

And the GI50 (A498)?
Its GI50 is 28.6 µM (inactive).

What about the GI50 (A549) of the same compound?
Its GI50 is 1.43 µM (inactive).

And the GI50 (ACHN)?
Its GI50 is 1.66 µM (inactive).

And the GI50 (CAKI-1)?
Its GI50 is 1.64 µM (inactive).

What about the GI50 (CCRF-CEM) of the same compound?
Its GI50 is 1.07 µM (active).

What about the GI50 (COLO 205) of the same compound?
The GI50 was 2.11 µM (inactive).

And the GI50 (DU-145)?
Its GI50 is 1.67 µM (inactive).

And the GI50 (EKVX)?
The GI50 was 1.57 µM (inactive).

What about the GI50 (HCC 2998) of the same compound?
The GI50 was 1.61 µM (inactive).

What about the GI50 (HCT-116) of the same compound?
Its GI50 is 1.73 µM (inactive).

What about the GI50 (HCT-15) of the same compound?
The GI50 was 1.32 µM.

What about the GI50 (Hs-578T) of the same compound?
Its GI50 is 2.33 µM (inactive).

What about the GI50 (IGROV-1) of the same compound?
Its GI50 is 1.53 µM (inactive).

And the GI50 (K562)?
Its GI50 is 0.403 µM (active).

What about the GI50 (KM12) of the same compound?
The GI50 was 1.56 µM (inactive).

And the GI50 (LOX IMVI)?
Its GI50 is 2.26 µM (inactive).

What about the GI50 (M14) of the same compound?
Its GI50 is 1.59 µM (inactive).

And the GI50 (MDA-MB-435)?
Its GI50 is 1.89 µM (inactive).

And the GI50 (MDA-N)?
The GI50 was 1.53 µM (inactive).

And the GI50 (MOLT-4)?
The GI50 was 2.23 µM (inactive).

And the GI50 (NCI-H23)?
The GI50 was 1.58 µM (inactive).

And the GI50 (NCI-H460)?
The GI50 was 1.47 µM (inactive).

And the GI50 (OVCAR-4)?
The GI50 was 1.71 µM (inactive).

What about the GI50 (PC-3) of the same compound?
The GI50 was 1.55 µM (inactive).

What about the GI50 (RPMI-8226) of the same compound?
Its GI50 is 2.35 µM (inactive).

What about the GI50 (RXF 393) of the same compound?
The GI50 was 2.12 µM (inactive).

And the GI50 (SF-268)?
The GI50 was 1.78 µM (inactive).

What about the GI50 (SF-295) of the same compound?
The GI50 was 2.15 µM (inactive).

What about the GI50 (SK-MEL-28) of the same compound?
Its GI50 is 1.77 µM (inactive).

And the GI50 (SK-MEL-5)?
Its GI50 is 1.9 µM (inactive).

And the GI50 (SN12C)?
Its GI50 is 1.57 µM (inactive).

What about the GI50 (SNB-19) of the same compound?
The GI50 was 1.79 µM (inactive).

What about the GI50 (SW-620) of the same compound?
The GI50 was 1.83 µM (inactive).

What about the GI50 (U-251) of the same compound?
The GI50 was 1.92 µM (inactive).

What about the GI50 (UACC-257) of the same compound?
The GI50 was 1.57 µM (inactive).

And the GI50 (UACC-62)?
Its GI50 is 1.77 µM (inactive).

And the GI50 (UO-31)?
The GI50 was 1.66 µM (inactive).

Which results are given for `CC(C)c1c(O[Si](C(C)C)(C(C)C)C(C)C)c2c3c(ccc4c3c1OC4(C)C)C(C)CC2` (centres undefined)?
GI50 (786-0): > 100 µM (inactive); GI50 (A498): > 100 µM (inactive); GI50 (A549): > 100 µM (inactive); GI50 (ACHN): > 100 µM (inactive); GI50 (CAKI-1): > 100 µM (inactive); GI50 (CCRF-CEM): > 100 µM (inactive); GI50 (COLO 205): > 100 µM (inactive); GI50 (DU-145): > 100 µM (inactive); GI50 (EKVX): > 100 µM (inactive); GI50 (HCT-116): > 100 µM (inactive); GI50 (HCT-15): > 100 µM; GI50 (HL-60): > 100 µM (inactive); GI50 (HOP-62): > 100 µM (inactive); GI50 (HOP-92): > 100 µM (inactive); GI50 (HT-29): > 100 µM (inactive); GI50 (Hs-578T): > 100 µM (inactive); GI50 (IGROV-1): > 100 µM (inactive); GI50 (K562): > 100 µM (inactive); GI50 (KM12): > 100 µM (inactive); GI50 (LOX IMVI): > 100 µM (inactive); GI50 (M14): > 100 µM (inactive); GI50 (MCF7): > 100 µM (inactive); GI50 (MDA-MB-231): > 100 µM (inactive); GI50 (MDA-MB-435): > 100 µM (inactive); GI50 (MDA-N): > 100 µM (inactive); GI50 (MOLT-4): > 100 µM (inactive); GI50 (Malme-3M): > 100 µM (inactive); GI50 (NCI-H226): > 100 µM (inactive); GI50 (NCI-H23): > 100 µM (inactive); GI50 (NCI-H460): > 100 µM (inactive); GI50 (NCI-H522): > 100 µM (inactive); GI50 (NCI/ADR-RES): > 100 µM (inactive); GI50 (OVCAR-3): > 100 µM (inactive); GI50 (OVCAR-4): > 100 µM (inactive); GI50 (OVCAR-5): > 100 µM (inactive); GI50 (OVCAR-8): > 100 µM (inactive); GI50 (PC-3): > 100 µM (inactive); GI50 (RPMI-8226): > 100 µM (inactive); GI50 (RXF 393): > 100 µM (inactive); GI50 (SF-268): > 100 µM (inactive); GI50 (SF-295): > 100 µM (inactive); GI50 (SF-539): > 100 µM (inactive); GI50 (SK-MEL-28): > 100 µM (inactive); GI50 (SK-MEL-2): > 100 µM (inactive); GI50 (SK-MEL-5): > 100 µM (inactive); GI50 (SK-OV-3): > 100 µM (inactive); GI50 (SN12C): > 100 µM (inactive); GI50 (SNB-19): > 100 µM (inactive); GI50 (SNB-75): 21.3 µM (inactive); GI50 (SR): > 100 µM (inactive); GI50 (SW-620): > 100 µM (inactive); GI50 (TK-10): > 100 µM (inactive); GI50 (U-251): > 100 µM (inactive); GI50 (UACC-257): > 100 µM (inactive); GI50 (UACC-62): > 100 µM (inactive); GI50 (UO-31): > 100 µM (inactive)
